System: STZ-induced NIDDM in outbred ICR mice
Assay: Effect of orally administered MIF antagonist on STZ-induced NIDDM in ICR mice
Format: in vivo
Details: for blood glucose levels: STZ 90 mg/Kg i.p., oral, daily single dose for 30 days; for blood glucose levels / serum levels of inflammatory cytokines / pro-inflammatory cytokine production: dose not stated
Method: ICR, MIF−/− BALB/c and BALB/c mice were fasted 20 hr before induction of diabetes with a single i.p. injection of STZ 90 mg/Kg (for ICR mice) or 130 mg/kg (for BALB/c mice) (Sigma, St. Louis, Mo., U.S.A.) freshly dissolved in 0.05 M citrate buffer, pH 4.5 following the protocol previously reported (13;14). Normal mice of each strain were injected with equivalent volume of citrate buffer as negative controls.
Blood samples from WT and MIF−/− mice were collected at 0, 1, 2, 4, 6, 8, and 10 weeks after STZ injection by tail snipping. Serum glucose levels were determined using Accu-Chek® glucometer. Body weights were measured immediately before blood collection. The animals were kept in individual metabolic cages for 24 hrs and provided with drinking water (100 ml) and food (75 g). The water and food consumption as well as urine output over a 24 hr period was determined. This process was repeated every week until 10 weeks after STZ induction.
Following administration of STZ, blood was collected at 1-week intervals by tail snips. Levels of TNF-α, IL-1β, IL-6, IL-4, IL-10, resistin (all from Peprotech, Mexico), and insulin (Lincon, St. Charles, Mo.) in sera were determined by ELISA as per the manufacturer's instructions.
Age and sex-matched ICR mice were fasted for 20 hrs and then injected i.p. with STZ (90 mg/Kg). Six-hours later following STZ injection mice were administered CSP1306 or PBS daily in a single dose orally for 30 days. Blood was collected by tail snipping once every week to measure glucose levels using Accu-Chek® glucometer and to determine cytokine levels by ELISA as described above. CPSI 1306 has the following formula: […]
NIDDM was induced in ICR mice by a single intraperitoneal injection of STZ (90 mg/kg). On day 5 post-STZ injection and thereafter mice were orally administered CPSI-1306 (1 mg/kg or 0.1 mg/Kg) daily for 30 days. Mice were bled once a week by tail sniping and levels of glucose (A) and inflammatory cytokines IL-6 (B) and TNF-α (C) in the blood were determined. The data are from one representative experiment out of three. * p<0.05.

[1] = ICR mice with STZ injection, 0.1 and 0.01 mg/kg
[2] = ICR mice, STZ-induced NIDDM, oral administration, ELISA

SMILES: O=C(C[C@H]1CC(c2ccc(F)cc2F)=NO1)N1CCOCC1 [CPSI-1306]
- blood glucose [1]: significant reduction
- polyuria [1]: less polyuria
- serum levels of inflammatory cytokines [1]: significant reduction
- severity of NIDDM [1]: reduced severity of NIDDM
- blood glucose levels after stoppage of treatment (ICR mice with STZ injection, after stoppage of treatment, data not shown): spike in blood glucose levels
- blood glucose levels (ICR mice, listed as CSP156): significant drop
- blood glucose levels (ICR mice, listed as CSP1306): significantly lowered blood glucose levels in majority of animals
- blood glucose levels (ICR mice, listed as CSPI-1306): highly effective
- level of pro-inflammatory cytokine IL-6 in the sera [2]: significant reduction
- level of pro-inflammatory cytokine TNF-α in the sera [2]: significant reduction
- serum levels of inflammatory cytokines / pro-inflammatory cytokine production (ICR mice, STZ-induced NIDDM, oral administration, listed as CSP156): reduction in serum levels of inflammatory cytokines
- serum levels of inflammatory cytokines / pro-inflammatory cytokine production (ICR mice, STZ-induced NIDDM, oral administration, listed as CSPI-1306): highly effective in suppressing pro-inflammatory cytokine production
- severity and progression of STZ-induced NIDDM (FIG. 6) (outbred ICR mice, STZ 90 mg/kg i.p., oral 1 mg/kg or 0.1 mg/Kg daily for 30 days from day 5 post-STZ): Significantly Reduces Severity and Progression

Reference: patent US20130123261A1, “ISOXAZOLINE COMPOUNDS IN TYPE 2 DIABETES AND OTHER MALADIES” (CPSI STOCKHOLDER TRUST, priority 2009, published 2013)
